Measurements reported in paper PMC8111447 (Frontiers in Pharmacology, 2021).

Tests used:
[1] = test system: PC-9 (exon 19 del) xenograft; experiment: PC-9 xenograft model; type: in vivo, Nu/Nu nude mice; conditions: oral, 2.5 to 15 mg/kg
Protocol: The female Nu/Nu nude mice were purchased from Beijing Vital River Laboratories. […] Nu/Nu nude mice were purchased from the Beijing Vital River Laboratories of China. The 6–8 weeks old female mice were inoculated subcutaneously at the right flank with approximately 3–5 × 10^6 tumor cells in 0.2 ml of medium. The treatments were started when the tumor size reached approximately 200 mm^3. […] All mice were orally administrated once daily for consecutive 14 days. Mouse body weight, tumor weight and tumor volume (TV) were measured twice per week. TV was then used for the calculation of tumor inhibitory rate and tumor regression rate.

[2] = test system: phosphorylation of EGFR and ERK; experiment: Immunohistochemistry of tumor tissue from NCI-H1975 xenograft model; type: in vivo, Nu/Nu nude mice; conditions: 6–24 h
Protocol: Paraffin-embedded tumor tissues from each group were sectioned, mounted on positively charged glass slides, baked, deparaffinized, and rehydrated. Antigen retrieval was performed by heating slides in EDTA (pH 8.0) for 10 min. Sections were incubated in p-EGF Receptor ([…]) Rabbit antibody and Phospho-p44/42 MAPK (Erk1/2) (Thr202/Tyr204) (20G11) Rabbit antibody overnight at 4°C and then incubated with Anti-Rabbit IgG (H + L) at 37°C for 45 min. The sections were then stained with diaminobenzidine (DAB) and visualized.

For `C=CC(=O)Nc1cc(Nc2nccc(-c3c4n(c5ccccc35)CCCC4)n2)c(OC)cc1N(C)CCN(C)C` [SH-1028], the tumor growth [1] was “significant inhibition of tumor cell growth” and the “phosphorylation levels of EGFR and ERK in tumor tissues” value [2] was “continuously inhibit the phosphorylation of EGFR and ERK”.
